Consider five compounds from patent publication US11427548B2 (Arvinas Operations, Inc., priority 2015, dated 2022).

In this assay the target is T1, Androgen Receptor (Homo sapiens, UniProt P10275).
T1 construct: endogenous in cells; host or cells: VCaP cells
T1 sequence (P10275 1-920): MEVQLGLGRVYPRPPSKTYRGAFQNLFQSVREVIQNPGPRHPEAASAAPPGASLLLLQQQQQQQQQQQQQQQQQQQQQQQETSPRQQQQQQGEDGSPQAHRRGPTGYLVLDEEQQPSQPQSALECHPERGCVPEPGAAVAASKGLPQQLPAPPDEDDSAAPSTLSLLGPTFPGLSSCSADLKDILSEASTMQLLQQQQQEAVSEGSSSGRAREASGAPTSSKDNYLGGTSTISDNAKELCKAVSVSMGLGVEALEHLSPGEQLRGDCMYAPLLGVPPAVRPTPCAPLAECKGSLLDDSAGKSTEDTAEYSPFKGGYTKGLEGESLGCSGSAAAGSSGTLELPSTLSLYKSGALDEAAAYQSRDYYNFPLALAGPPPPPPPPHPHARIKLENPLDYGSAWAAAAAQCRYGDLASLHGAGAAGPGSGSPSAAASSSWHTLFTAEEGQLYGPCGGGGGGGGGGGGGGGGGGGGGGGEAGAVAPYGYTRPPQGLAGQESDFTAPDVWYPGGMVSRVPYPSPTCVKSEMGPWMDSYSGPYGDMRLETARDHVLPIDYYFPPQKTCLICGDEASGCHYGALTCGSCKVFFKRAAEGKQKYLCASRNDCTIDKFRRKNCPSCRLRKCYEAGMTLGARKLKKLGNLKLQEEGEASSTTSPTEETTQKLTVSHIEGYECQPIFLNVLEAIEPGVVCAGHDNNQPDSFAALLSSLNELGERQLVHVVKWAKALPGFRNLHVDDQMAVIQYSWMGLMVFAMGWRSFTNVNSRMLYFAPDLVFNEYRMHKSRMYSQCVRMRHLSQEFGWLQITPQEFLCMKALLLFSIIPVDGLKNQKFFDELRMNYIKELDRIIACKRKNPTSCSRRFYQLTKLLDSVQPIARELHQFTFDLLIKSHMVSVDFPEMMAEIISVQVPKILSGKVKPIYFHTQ
Description: Androgen Receptor ELISA assay (PathScan AR ELISA) in VCaP cells: AR degradation, Dmax and DC50. It counts as cell-based. In short, it runs like this:
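VCaP cells in phenol red-free RPMI with 5% charcoal-stripped FBS were grown at least 3 days, then given compound as 7 half-log doses in 0.1% DMSO with 0.1 nM R1881 for 24 h. Lysates went into a sandwich AR ELISA with TMB read at 450 nm.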

The mark [1] stands for this setting: VCaP cells; Table 36; read-out: VCaP DC50.
Setting [2] is: VCaP, VCaP cells; Table 36; read-out: VCaP Dmax (%).

SMILES strings stand for the structures. Like-named read-outs stand apart in the source and are kept apart here. Some results are limits rather than exact numbers.

For the compound `Cc1ncsc1-c1ccc([C@H](C)NC(=O)C2C[C@@H](O)CN2C(=O)C(NC(=O)CN2C3CCC2CN(CCCCc2ccc(C(=O)N[C@H]4C(C)(C)[C@H](Oc5ccc(C#N)c(Cl)c5)C4(C)C)cn2)C3)C(C)(C)C)cc1` (stereo partly drawn) [Example 840, N-((1r,3r)-3-(3-chloro-4-cyanophenoxy)-2,2,4,4-tetramethylcyclobutyl)-6-(4-(8-(2-(((S)-1-((2S, 4R)-4-hydroxy-2-(((S)-1-(4-(4-methylthiazol-5-yl)phenyl)ethyl)carbamoyl)pyrrolidin-1-yl)-3,3-dimethyl-1-oxobutan-2-yl)amino)-2-oxoethyl)-3,8-diazabicyclo[3.2.1]octan-3-yl)butyl) nicotinamide], where the note is “VCaP, read-out: VCaP Dmax (%)”, the Dmax is over 71%. For the same compound, the DC50 (read-out: VCaP DC50; VCaP cells; Table 36) is under 50 nM.

`Cc1ncsc1-c1ccc([C@H](CO)NC(=O)[C@@H]2C[C@@H](O)CN2C(=O)[C@@H](NC(=O)CN2CCN(CCC3CCN(c4ccc(C(=O)N[C@H]5C(C)(C)[C@H](Oc6ccc(C#N)c(Cl)c6)C5(C)C)cn4)C3)CC2)C(C)(C)C)cc1` (stereo partly drawn) [Example 841, N-((1r,3r)-3-(3-chloro-4-cyanophenoxy)-2,2,4,4-tetramethylcyclobutyl)-6-(3-(2-(4-(2-(((S)-1-((2S,4R)-4-hydroxy-2-(((R)-2-hydroxy-1-(4-(4-methylthiazol-5-yl)phenyl)ethyl)carbamoyl)pyrrolidin-1-yl)-3,3-dimethyl-1-oxobutan-2-yl)amino)-2-oxoethyl)piperazin-1-yl)ethyl)pyrrolidin-1-yl)nicotinamide]: the DC50 under setting [1] was under 50 nM. Under “VCaP, read-out: VCaP Dmax (%)”, the Dmax is over 71%.

`Cc1ncsc1-c1ccc([C@H](C)NC(=O)[C@@H]2C[C@@H](O)CN2C(=O)[C@@H](NC(=O)COC2CN(CCNc3ccc(C(=O)N[C@H]4C(C)(C)[C@H](Oc5ccc(C#N)c(Cl)c5)C4(C)C)cn3)C2)C(C)(C)C)cc1` [Example 842, N-((1r,3r)-3-(3-chloro-4-cyanophenoxy)-2,2,4,4-tetramethylcyclobutyl)-6-((2-(3-(2-(((S)-1-((2S,4R)-4-hydroxy-2-(((S)-1-(4-(4-methylthiazol-5-yl)phenyl)ethyl)carbamoyl)pyrrolidin-1-yl)-3,3-dimethyl-1-oxobutan-2-yl)amino)-2-oxoethoxy)azetidin-1-yl)ethyl)amino) nicotinamide]: the DC50 under setting [1] was under 50 nM. Under setting [2], the Dmax was 26 to 50%.

With `Cc1ncsc1-c1ccc([C@H](C)NC(=O)C2C[C@@H](O)CN2C(=O)C(NC(=O)CN2CCN(CCN3CCN(c4ccc(C(=O)NC5C(C)(C)C(Oc6ccc(C#N)c(Cl)c6)C5(C)C)cn4)C[C@H]3CO)CC2)C(C)(C)C)cc1` (stereo partly drawn) [Example 843, N-((1r,3S)-3-(3-chloro-4-cyanophenoxy)-2,2,4,4-tetramethylcyclobutyl)-6-((S)-4-(2-(4-(2-(((S)-1-((2S,4R)-4-hydroxy-2-(((S)-1-(4-(4-methylthiazol-5-yl)phenyl)ethyl)carbamoyl)pyrrolidin-1-yl)-3,3-dimethyl-1-oxobutan-2-yl)amino)-2-oxoethyl)piperazin-1-yl)ethyl)-3-(hydroxymethyl)piperazin-1-yl) nicotinamide], under setting [1], the DC50 is under 50 nM. Under setting [2], the Dmax was 51 to 70%.

Turning to `Cc1ncsc1-c1ccc([C@H](C)NC(=O)[C@@H]2C[C@@H](O)CN2C(=O)[C@@H](NC(=O)CO[C@H]2C[C@@H](N3CCN(c4ccc(C(=O)N[C@H]5C(C)(C)[C@H](Oc6ccc(C#N)c(Cl)c6)C5(C)C)cn4)CC3)C2)C(C)(C)C)cc1` [Example 845, N-((1r,3R)-3-(3-chloro-4-cyanophenoxy)-2,2,4,4-tetramethylcyclobutyl)-6-(4-((1R,3S)-3-(2-(((S)-1-((2S,4R)-4-hydroxy-2-(((S)-1-(4-(4-methylthiazol-5-yl)phenyl)ethyl)carbamoyl)pyrrolidin-1-yl)-3,3-dimethyl-1-oxobutan-2-yl)amino)-2-oxoethoxy)cyclobutyl)piperazin-1-yl)nicotinamide], the DC50 under setting [1] is under 50 nM. The Dmax under setting [2] was over 71%.
